{
  "source": "paper PMC4980415",
  "about": "(Psychopharmacology, 2016)",
  "key": {"[1]": {"tested_on": "memory acquisition in male Wistar rats", "test": "Novel object recognition (NOR): acquisition, drug 2 h before T1", "assay_type": "in vivo, rat", "conditions": "for Exploration time e1 (T1) / Exploration time e2 (T2): 2 h before T1, 24 h interval", "description": "(§1) The drug was administered, per os (po), by gavage to rats in a volume of 2 ml/kg body weight. Oral dosing solutions were prepared fresh daily. […] The pH of the dosing solution was adjusted to ~pH 5.5 by dropwise addition of 0.1 N NaOH in saline and volume adjusted by addition of saline in preparation for intraperitoneal (ip) dosing. […] Control treatments were always the vehicle solutions of the corresponding drugs.\n(§2) The object recognition test was performed as described elsewhere (Ennaceur and Delacour [1988]; Akkerman et al. 2014). The apparatus consisted of a circular arena, 83 cm in diameter. Half of the 40-cm-high wall was made of gray polyvinyl chloride, the other half of transparent polyvinyl chloride. The light intensity was equal in the different parts of the apparatus, as fluorescent red tubes provided a constant illumination of about 20 lx on the floor of the apparatus. Two objects were placed in a symmetrical position at about 10 cm from the gray wall. Four different sets of objects were used. The different objects were (1) a cone consisting of a gray polyvinyl chloride base (maximal diameter 18 cm) with a collar on top made of brass (total height 16 cm), (2) a standard 1 L transparent glass bottle (diameter 10 cm, height 22 cm) filled with water, (3) a large metal cube (10.0 × 5.0 × 7.5 cm) with two holes (diameter 1.9 cm), and (4) a large aluminum cube with a tapering top (13.0 × 8.0 × 8.0 cm). The objects used in this study were carefully selected to be “novelty neutral,” that is to say the rats have no innate preference for one over the other. In all cases, objects were of sufficient size and weight that rats could not move the objects.\n(§3) A testing session consisted of two trials. The duration of each trial was 3 min. During the first trial (T1), the apparatus contained two identical objects (samples). Rats were placed in the apparatus facing the wall at the middle of the front (transparent) segment. After the first exploration period, the rat was put back in its home cage. Subsequently, after a 24-h delay interval, the rat was put in the apparatus for the second trial (T2). The times spent in exploring each object during T1 and T2 were recorded manually using a personal computer.\n(§4) Exploration was defined as follows: directing the nose to the object at a distance of no more than 2 cm and/or touching the object with the nose. Sitting on the object was not considered as exploratory behavior. In order to avoid the presence of olfactory cues, the objects were always thoroughly cleaned with a 70 % ethanol solution before each trial. All combinations and locations of objects were used in a balanced manner to reduce potential biases due to preferences for particular locations or objects.\n(§5) During the first 2 weeks after animal arrival, the animals were handled daily. They were then adapted to the procedure over the period of 2 days by allowing them to explore the apparatus (without any objects) for 3 min twice each day. […] After this, the rats were assigned to treatment conditions in a balanced manner, thereby insuring an equal distribution of object combinations among the treatment conditions. […] In all experiments, a 24-h inter-trial interval was used. In all cases, the experimenter was unaware of the treatment conditions that were being tested.\n(§6) The basic measure recorded was the time spent by each rat exploring an object during T1 and T2. The time spent in exploring the two identical samples was represented by “a1” and “a2.” The time spent in T2 in exploring the sample and new object was represented by “a” and “b,” respectively. The following variables were calculated: e1 = a1 + a2, e2 = a + b, and d2 = (b − a) / e2. The e1 and e2 are measures of the total exploration time of both objects during T1 and T2, respectively. Differences in exploration times between treatment conditions were analyzed using a t test or one-way ANOVA. […]"}, "NK3 (h), neurokinin": {"molecular_target": "T1, NK3 (h), neurokinin (Homo sapiens, UniProt P29371)", "T1 construct": "Caliper Life Sciences (contract screen)", "T1 sequence (P29371 1-465)": "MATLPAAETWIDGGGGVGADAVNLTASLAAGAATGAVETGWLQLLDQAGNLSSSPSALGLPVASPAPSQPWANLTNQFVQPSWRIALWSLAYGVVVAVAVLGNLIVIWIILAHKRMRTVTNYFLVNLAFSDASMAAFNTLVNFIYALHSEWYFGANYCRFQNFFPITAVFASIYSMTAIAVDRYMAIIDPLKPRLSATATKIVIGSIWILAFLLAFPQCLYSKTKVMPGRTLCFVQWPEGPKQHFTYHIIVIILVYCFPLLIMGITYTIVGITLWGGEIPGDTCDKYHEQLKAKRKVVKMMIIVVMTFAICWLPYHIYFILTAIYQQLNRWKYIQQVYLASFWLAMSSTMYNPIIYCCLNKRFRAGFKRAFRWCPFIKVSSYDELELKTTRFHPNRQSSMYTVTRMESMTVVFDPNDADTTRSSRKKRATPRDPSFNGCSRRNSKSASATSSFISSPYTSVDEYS", "test": "Off-target binding, General SEP II panel", "conditions": "10 μM ITI-214, mean of n = 2"}, "NK1 (h), neurokinin": {"molecular_target": "T2, NK1 (h), neurokinin (Homo sapiens, UniProt P25103)", "T2 construct": "Caliper Life Sciences (contract screen)", "T2 sequence (P25103 whole entry)": "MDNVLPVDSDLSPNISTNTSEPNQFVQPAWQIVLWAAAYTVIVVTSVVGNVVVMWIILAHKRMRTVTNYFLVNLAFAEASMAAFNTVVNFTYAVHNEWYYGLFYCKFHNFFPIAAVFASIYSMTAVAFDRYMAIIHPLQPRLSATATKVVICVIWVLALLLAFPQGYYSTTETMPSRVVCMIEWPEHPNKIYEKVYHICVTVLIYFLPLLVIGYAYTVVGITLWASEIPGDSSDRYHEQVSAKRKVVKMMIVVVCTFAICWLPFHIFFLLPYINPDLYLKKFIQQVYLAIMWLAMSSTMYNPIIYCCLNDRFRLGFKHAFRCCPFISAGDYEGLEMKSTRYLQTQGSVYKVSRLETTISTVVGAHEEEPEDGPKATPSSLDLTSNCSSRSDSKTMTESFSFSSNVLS", "test": "Off-target binding, General SEP II panel", "conditions": "10 μM ITI-214, mean of n = 2"}, "[2]": {"tested_on": "Alpha 2 (non-selective), adrenergic", "test": "Off-target binding, General SEP II panel", "conditions": "10 μM ITI-214, mean of n = 2"}, "[3]": {"conditions": "healthy volunteers and patients with schizophrenia; no reference given; cited from earlier work"}, "[4]": {"tested_on": "late memory consolidation in male Wistar rats", "test": "Novel object recognition (NOR): late consolidation, drug 3 h after T1", "assay_type": "in vivo, rat", "conditions": "for Exploration time e1 (T1) / Exploration time e2 (T2): 3 h after T1", "description": "as §1, §2, §3, §4, §5, §6"}, "PDE1 isoforms": {"molecular_target": "PDE1 isoforms", "test": "PDE1 potency and selectivity versus other PDE families", "assay_type": "biochemical", "conditions": "span of Table 1 values; read-out: Ki for inhibition of recombinant or bovine PDE1 enzymes"}},
  "note": "Counter-ions that a name gives are not always drawn.",
  "data": [
    {"smiles": "CN1C(=O)c2c(nn(Cc3ccc(-c4cccc(F)n4)cc3)c2Nc2ccccc2)N2C1=N[C@@H]1CCC[C@@H]12", "note": "[ITI-214, (6aR,9aS)-2-(4-(6-fluoropyridin-2-yl)benzyl)-5-methyl-3-(phenylamino)-5,6a,7,8,9,9a-hexahydrocyclopenta-[4,5]imidazo[1,2-a]pyrazolo[4,3-e]pyrimidin-4-(2H)-one phosphate salt]", "values": [
      {"measurement": "Exploration time e1 (T1)", "setting": "[1]; 0.1 mg/kg po", "value": "28.38 (1.86) s"},
      {"measurement": "Exploration time e2 (T2)", "setting": "[1]; 0.1 mg/kg po", "value": "27.33 (1.48) s"},
      {"measurement": "Exploration time e1 (T1)", "setting": "[1]; 0.3 mg/kg po", "value": "27.55 (1.62) s"},
      {"measurement": "Exploration time e2 (T2)", "setting": "[1]; 0.3 mg/kg po", "value": "26.10 (1.69) s"},
      {"measurement": "Exploration time e1 (T1)", "setting": "[1]; 1 mg/kg po", "value": "27.97 (1.78) s"},
      {"measurement": "Exploration time e2 (T2)", "setting": "[1]; 1 mg/kg po", "value": "29.38 (1.38) s"},
      {"measurement": "Exploration time e1 (T1)", "setting": "[1]; 3 mg/kg po", "value": "27.28 (1.74) s"},
      {"measurement": "Exploration time e2 (T2)", "setting": "[1]; 3 mg/kg po", "value": "28.73 (1.62) s"},
      {"measurement": "Exploration time e1 (T1)", "setting": "[1]; 10 mg/kg po", "value": "26.21 (1.97) s"},
      {"measurement": "Exploration time e2 (T2)", "setting": "[1]; 10 mg/kg po", "value": "28.15 (1.38) s"},
      {"measurement": "effect on exploratory behavior during T1 or T2", "setting": "[1]; 0.1–10 mg/kg po 2 h before T1", "value": "no effect on exploratory behavior"},
      {"measurement": "% Binding", "setting": "NK3 (h), neurokinin", "value": 64.65, "unit": "%"},
      {"measurement": "% Binding", "setting": "NK1 (h), neurokinin", "value": 30.93, "unit": "%"},
      {"measurement": "% Binding", "setting": "[2]", "value": 34.94, "unit": "%"},
      {"measurement": "safety and tolerability", "setting": "[3]", "value": "safe and well-tolerated"},
      {"measurement": "Exploration time e1 (T1)", "setting": "[4]; 0.1 mg/kg po", "value": "26.20 (1.95) s"},
      {"measurement": "Exploration time e2 (T2)", "setting": "[4]; 0.1 mg/kg po", "value": "32.81 (2.24) s"},
      {"measurement": "Exploration time e1 (T1)", "setting": "[4]; 0.3 mg/kg po", "value": "29.36 (3.22) s"},
      {"measurement": "Exploration time e2 (T2)", "setting": "[4]; 0.3 mg/kg po", "value": "29.64 (2.15) s"},
      {"measurement": "Exploration time e1 (T1)", "setting": "[4]; 1 mg/kg po", "value": "25.93 (1.53) s"},
      {"measurement": "Exploration time e2 (T2)", "setting": "[4]; 1 mg/kg po", "value": "27.86 (2.43) s"},
      {"measurement": "Exploration time e1 (T1)", "setting": "[4]; 3 mg/kg po", "value": "25.62 (1.89) s"},
      {"measurement": "Exploration time e2 (T2)", "setting": "[4]; 3 mg/kg po", "value": "28.34 (2.95) s"},
      {"measurement": "effect on exploratory behavior", "setting": "[4]; early and late consolidation experiments", "value": "no effects on exploratory behavior"},
      {"measurement": "full effective dose (d2 different from chance and from vehicle), late consolidation", "setting": "[4]; po 3 h after T1", "value": 1, "unit": "mg/kg"},
      {"measurement": "Ki", "setting": "PDE1 isoforms", "value": "34 to 58", "unit": "pM"}
    ]}
  ]
}
